Test results reported in publication PMC10046907 (Current Issues in Molecular Biology, 2023).
Where two headings read alike, the source gives them in different places.

Columns and labels:
[1] = system: A/Chicken/Korea/MS96/96 (H9N2); experiment: microbe, parasite or virus in culture; conditions: Influenza A virus, H9N2, MDCK, in Gallus gallus, 72 h
influenza virus NP = assay type: cell-based
in vitro = conditions: dog
[2] = system: phosphorylation of MEK1/2; experiment: Western blot of p-MEK1/2 in influenza-infected MDCK cells; assay type: cell-based, canine; conditions: 20 μM, 10 h, all strains
[3] = system: A/Chicken/Korea/MS96/96 (H9N2); conditions: dog
[4] = system: influenza RNP export from the nucleus to the cytoplasm; experiment: Confocal fluorescence imaging of influenza RNP nuclear export; assay type: cell-based, influenza virus (H1N1); conditions: 20 μM, H1N1-infected MDCK cells, 10 h
Procedure: MDCK cells were grown on a chamber slide, pre-coated with poly-L-lysine, and the monolayers were infected with influenza virus at 0.001 MOI for 1 h. The virus was removed and replaced by EMEM containing 10 μg/mL trypsin and each compound under test. All cells were cultured for 10 h at 37 °C in a 5% CO2 atmosphere and fixed in 4% paraformaldehyde solution for 15 min at room temperature. After washing, the cells were incubated at 37 °C for 1 h with an FITC-conjugated nucleoprotein (NP)-specific monoclonal antibody against influenza virus (Millipore, MA, USA) diluted at 1:50. After washing with PBS, cells were counterstained with 500 nM propidium iodide solution. Slides were mounted using the SlowFade Gold antifade reagent (Invitrogen, CA, USA). Confocal fluorescence imaging was performed using the Carl Zeiss LSM 510 META confocal microscope (Carl Zeiss Inc., Jena, Germany).
Figure 3 18-Hydroxyferruginol (1) and 18-oxoferruginol (2) inhibit the export of the influenza virus RNP complex from the nucleus to the cytoplasm. MDCK cells were infected with H1N1 at 0.001 MOI in the presence of 0.5% DMSO, 50 μM LY294002, 20 μM 18-hydroxyferruginol (1), or 20 μM 18-oxoferruginol (2). After 10 h, the cells were fixed in 4% paraformaldehyde. After blocking, the cells were incubated with the anti-NP antibody (green). Propidium iodide was used as a nuclear counterstain (red). Scale bar = 10 µm.

influenza virus NS1 = assay type: cell-based
ERK phosphorylation = experiment: Western blot of p-ERK in influenza-infected MDCK cells; assay type: cell-based, canine; conditions: 10 h; for viral-infection-induced ERK phosphorylation: 20 μM
influenza vRNA (M gene) = assay type: cell-based, influenza virus; conditions: 20 μM, all virus strains, at 12 and 18 h, vs infected/untreated cells (0.5% DMSO)
A/PR/8/34 (H1N1) [5] = conditions: dog
p-Akt (Serine 473) = experiment: Western blot of p-Akt in influenza-infected MDCK cells; assay type: cell-based, canine; conditions: 20 μM, after viral infection, vs viral-infected/untreated cells
A/PR/8/34 (H1N1) [6] = experiment: in vitro; conditions: dog, SI (selective index, CC50/IC50)
[7] = system: A/Chicken/Korea/MS96/96 (H9N2); experiment: in vitro; conditions: dog, SI (selective index, CC50/IC50)
influenza vRNA (NP gene) = assay type: cell-based, influenza virus
A/PR/8/34 (H1N1) [8] = experiment: microbe, parasite or virus in culture; conditions: Influenza A virus, MDCK, 72 h
[9] = biological target: neuraminidase from A/Chicken/Korea/MS96/96 (H9N2) (Influenza A virus (A/Chicken/Korea/MS96/96(H9N2)), UniProt Q9J458); assay type: biochemical, influenza A viruses; conditions: read-out: Neuraminiase IC50
[10] = biological target: neuraminidase from A/PR/8/34 (H1N1) (Influenza A virus, UniProt P03468); experiment: biochemical; set-up: species or system influenza A viruses
A/Hong Kong/8/68 (H3N2) [11] = experiment: in vitro; conditions: dog, SI (selective index, CC50/IC50)
A/Hong Kong/8/68 (H3N2) [12] = conditions: dog
A/Hong Kong/8/68 (H3N2) [13] = experiment: microbe, parasite or virus in culture; conditions: Influenza A virus, H3N2, MDCK, 72 h
[14] = 20 μM, all three strains, 10 h after infection

Sequence of neuraminidase from A/PR/8/34 (H1N1) (P03468 whole entry, looked up): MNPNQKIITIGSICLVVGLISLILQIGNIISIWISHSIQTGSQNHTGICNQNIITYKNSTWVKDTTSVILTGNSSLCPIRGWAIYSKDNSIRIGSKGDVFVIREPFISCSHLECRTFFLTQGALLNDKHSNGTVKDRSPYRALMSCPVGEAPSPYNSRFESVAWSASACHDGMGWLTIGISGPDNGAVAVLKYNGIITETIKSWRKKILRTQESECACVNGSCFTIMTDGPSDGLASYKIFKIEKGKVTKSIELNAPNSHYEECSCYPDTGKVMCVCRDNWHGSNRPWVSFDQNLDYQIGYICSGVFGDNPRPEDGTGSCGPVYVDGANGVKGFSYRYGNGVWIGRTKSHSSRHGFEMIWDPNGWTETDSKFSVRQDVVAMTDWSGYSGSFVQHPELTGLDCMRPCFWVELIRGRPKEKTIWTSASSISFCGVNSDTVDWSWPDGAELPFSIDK

| SMILES | IC50 [1] [µM] | levels of influenza virus NP (influenza virus NP) | CC50 (in vitro) [µM] | phosphorylation of MEK1/2 induced by infection [2] | SI (selective index, CC50/IC50) [3] | toxic effect on MDCK cells (MDCK cells) | influenza RNP export from the nucleus to the cytoplasm [4] | accumulation of viral protein NS1 (influenza virus NS1) | viral-infection-induced ERK phosphorylation (ERK phosphorylation) | decrease of influenza vRNA levels (M gene) (influenza vRNA (M gene)) | SI (selective index, CC50/IC50) (A/PR/8/34 (H1N1) [5]) | p-Akt levels (p-Akt (Serine 473)) | selectivity ratio (A/PR/8/34 (H1N1) [6]) | selectivity ratio [7] | reduction of influenza vRNA levels (NP gene) (influenza vRNA (NP gene); [14]) | IC50 (A/PR/8/34 (H1N1) [8]) [µM] | IC50 [9] [µM] | IC50 [10] [µM] | IC50 (A/Hong Kong/8/68 (H3N2) [13]) [µM] | further results |
| --- | --- | --- | --- | --- | --- | --- | --- | --- | --- | --- | --- | --- | --- | --- | --- | --- | --- | --- | --- | --- |
| CC(C)c1cc2c(cc1O)[C@@]1(C)CCC[C@@](C)(CO)[C@@H]1CC2 [Compound 1, 18-hydroxyferruginol] | 12.8 ± 0.1 | reduction in the levels of influenza virus NP | 35.5 ± 0.4 | inhibited | 2.77 | no toxic effect | reduction in influenza RNP export from the nucleus to the cytoplasm | markedly decreased | inhibited viral-infection-induced ERK phosphorylation | 65.3–91.6% | 2.61 | decreased p-Akt levels | 1.68 | 1.79 | 2–2.5 fold | 13.6 ± 1.4 | 82.2 | > 100 |  |  |
| CC(C)c1cc2c(cc1O)[C@@]1(C)CCC[C@@](C)(C=O)[C@@H]1CC2 [Compound 2, 18-oxoferruginol] | 10.8 ± 2.2 | reduction in the levels of influenza virus NP | 41.2 ± 1.5 | inhibited | 3.81 | no toxic effect | reduction in influenza RNP export from the nucleus to the cytoplasm | markedly decreased | inhibited viral-infection-induced ERK phosphorylation | 60.7–92.4% | 2.25 | decreased p-Akt levels | 2.13 | 3.6 | 2–3 fold | 18.3 ± 6.5 | > 100 | > 100 | 29.2 ± 1.9 | selectivity ratio (A/Hong Kong/8/68 (H3N2) [11]): 1.33; SI (selective index, CC50/IC50) (A/Hong Kong/8/68 (H3N2) [12]): 1.41 |
| O=c1cc(N2CCOCC2)oc2c(-c3ccccc3)cccc12 [LY294002, reference compound] |  |  |  |  |  |  |  |  |  |  |  |  |  |  |  |  |  |  |  | ERK phosphorylation (ERK phosphorylation; 50 μM): strongly inhibited ERK phosphorylation; reduction of influenza vRNA levels (NP gene) (influenza vRNA (NP gene); 50 μM, all three strains, 10 h after infection): 3.3–5.2 fold |
| CCOC(=O)C1=C[C@@H](OC(CC)CC)[C@H](NC(C)=O)[C@@H](N)C1 [Olseltamivir, oseltamivir, reference compound] | < 0.7 |  | > 500 |  |  |  |  |  |  |  |  |  |  |  |  | 1.35 ± 1.2 |  |  | 1.09 ± 0.5 |  |
| COc1cccc(-c2cc(=O)c3ccccc3o2)c1N [PD98059, reference compound] |  |  |  |  |  |  |  |  |  |  |  |  |  |  |  |  |  |  |  | reduction of influenza vRNA levels (NP gene) (influenza vRNA (NP gene)): 4.3–9.1 fold |
